From article PMC8899474, “Discovery and Characterization of the Key Constituents in Ginkgo biloba Leaf Extract With Potent Inhibitory Effects on Human UDP-Glucuronosyltransferase 1A1” (Frontiers in Pharmacology, 2022)

Experiments:
hUGT1A1 [1] = biological target: T1, hUGT1A1 (Homo sapiens, UniProt P22309); assay: UGT1A1 inhibition assay and inhibition kinetics in human liver microsomes (NHPN-O-glucuronidation); type: biochemical; settings: NHPN-O-glucuronidation in HLM
T1 sequence (P22309 26-533): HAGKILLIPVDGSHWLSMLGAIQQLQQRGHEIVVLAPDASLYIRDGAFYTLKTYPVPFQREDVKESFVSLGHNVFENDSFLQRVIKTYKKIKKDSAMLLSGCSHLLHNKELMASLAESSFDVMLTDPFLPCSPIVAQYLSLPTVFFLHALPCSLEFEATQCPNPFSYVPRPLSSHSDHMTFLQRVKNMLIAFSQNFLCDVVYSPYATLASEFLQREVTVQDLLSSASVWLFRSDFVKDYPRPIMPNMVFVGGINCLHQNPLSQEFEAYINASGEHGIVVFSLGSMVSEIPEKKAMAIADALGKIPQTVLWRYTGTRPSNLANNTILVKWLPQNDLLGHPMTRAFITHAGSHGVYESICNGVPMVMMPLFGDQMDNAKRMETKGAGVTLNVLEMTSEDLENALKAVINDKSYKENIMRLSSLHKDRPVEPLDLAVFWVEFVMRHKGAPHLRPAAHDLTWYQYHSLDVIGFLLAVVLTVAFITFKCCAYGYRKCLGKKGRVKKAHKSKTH

hUGT1A1 [2] = biological target: T1, hUGT1A1; assay: UGT1A1 inhibition assay in living HeLa-UGT1A1 cells (NHPN-O-glucuronidation, LC-FD); type: cell-based; parameters: expressed in transfected cells; host or cells: HeLa cells, stably transduced with lentivirus (HeLa-UGT1A1); settings: for inhibition of intracellular hUGT1A1: high concentration (100 μM), HeLa-UGT1A1 cells
Protocol: A RF-20A FD detector coupled UFLC system (Shimadzu, Kyoto, Japan), equipped with a DGU-20A5R vacuum degasser, two LC-20ADXR pumps, a SIL-20ACXR autosampler and a CTO-20A column oven, was used to quantify NHPN and NHPNG. Chromatographic separation of analytes was carried out on a shim-pack Acchrom HC-C18 analytical column (2.0 × 150 mm, 4.6 μm particle size), while the column temperature was kept at 40°C. The flow rate was kept at 0.5 ml/min. The mobile phase consisted of acetonitrile (A) and water containing 0.2% formic acid (B). The gradient of the mobile phase was as follows: 0–0.5 min, 80–60% B; 0.5–3.5 min, 60–5% B; 3.5–5 min, 5% B; 5–7.5 min, equilibration with 80% B. The excitation wavelength and the emission wavelength were set at 370 and 520 nm, respectively for detection.
The inhibitory effects of herbal products and chemical constituents of GBL extract on UGT1A1 were investigated in living HeLa-UGT1A1 cells by using a specific fluorescent substrate, NHPN, as a probe. HeLa-UGT1A1 cells were cultured at 37°C in 5% CO2 in Modified Eagle’s Medium (MEM) containing 0.1% antibiotic-antimycoticmix, supplemented with 10% fetal bovine serum (FBS). HeLa-UGT1A1 cells were seeded in 96-well plates and cultured for 24 h. The cells were incubated in the medium containing different kinds of herbal products (final concentration, 10 μg/ml) or chemical constituents of GBL extract (diluted to different concentration by DMSO with the final concentration of 1% DMSO in each incubation) for 60 min at 37°C under 5% CO2, and co-incubated with NHPN (final concentration, 50 μM) for another 60 min. […] The validation data for this cell-based flourescence assay can be found in our previous publication ([Zhu et al., 2020]).

hUGT1A1 [3] = biological target: T1, hUGT1A1; assay: UGT1A1 inhibition assay and inhibition kinetics in human liver microsomes (NHPN-O-glucuronidation); type: biochemical; settings: NHPN-O-glucuronidation in HLM; for Ki: second plot of Lineweaver-Burk slopes
Protocol: A set of incubations by changing both the fluorescent substrate concentration and the inhibitor concentration were performed to determine the inhibition kinetic modes and the corresponding inhibition constant (K i ) values. The incubation and analytical sample preparation were conducted as described previously. Goodness-of-fit parameter and Akaike’s Information Criterion (AIC) were employed to select the most appropriate inhibition kinetic modes from the following three inhibition modes including competitive inhibition Eq. 1, noncompetitive inhibition Eq. 2, or mixed inhibition Eq. 3, V=Vmax×[S]/Km×(1+[I]/Ki)+[S] (1) V=Vmax×[S]/(Km+[S])×(1+[I]/Ki) (2) V=Vmax×[S]/Km×(1+[I]/Ki)+[S]×(1+[I]/αKi) (3)
Here, V is the turnover of the glucuronidation reaction; V max is the maximum velocity; S and I are the substrate and inhibitor concentrations, respectively; K m is the Michaelis constant (substrate concentration at 0.5 V max ); K i is the inhibition constant that describes the affinity of the inhibitor towards hUGT1A1. The corresponding K i value of each tested inhibitor is calculated by utilizing the slopes of second plot from Lineweaver-Burk plot versus inhibitor concentrations.

hUGT1A1 [4] = biological target: T1, hUGT1A1; assay: UGT1A1 inhibition assay with recombinant UGT1A1 (NHPN-O-glucuronidation)
Protocol: NHPN was used for evaluating the inhibitory effects of GBL extract on HLM. A typical incubation mixture with a total volume of 200 μl consisted of 50 mM Tris-HCl (pH = 7.4), 5 mM MgCl2, 2 mM UDPGA, NHPN (diluted by DMSO, 5 μM) and the enzymes. […] The final concentration of DMSO in the incubation mixture was less than 1%. […] A concentration of 5 μg/ml was used when recombinant UGT1A1 was the enzyme source. After pre-incubation for 3 min at 37°C, UDPGA was added to the incubation mixture to initiate the reaction. After 60 min incubation at 37°C, the reaction was terminated by adding 200 μl ice-cold acetonitrile, and the incubation mixture was kept on ice. After centrifugation at 20,000×g for 20 min at 4°C, 5 μl aliquots of the supernatant was taken for LC-FD analysis.
The residual activity of hUGT1A1 was determined as follows: Residual activity (%) = (the fluorescence intensity of NHPNG generated in the incubations with inhibitor)/(the fluorescence intensity of NHPNG generated in the incubations without inhibitor) × 100%. A set of incubations with the same fluorescent substrate concentration and different inhibitor concentrations were performed to determine the half maximal inhibition concentration (IC50).

[5] = hUGT1A1-catalyzed NHPN-O-glucuronidation in HeLa-UGT1A1 cells, read-out: IC50

Row | IC50 (hUGT1A1 [1]) [nM] | IC50 (hUGT1A1 [2]; [5]) [nM] | Molecule | other results
1 | 410 ± 34 | 3290 ± 470 | O=c1cc(-c2ccc(O)c(-c3c(O)cc(O)c4c(=O)cc(-c5ccc(O)cc5)oc34)c2)oc2cc(O)cc(O)c12 [Amentoflavone] | –
2 | – | 1890 ± 240 | O=c1cc(-c2ccc(O)cc2)oc2cc(O)cc(O)c12 [Apigenin] | –
3 | – | 1500 ± 460 | COc1cc(O)c2c(=O)cc(-c3ccc(O)cc3)oc2c1 [Genkwanin] | –
4 | 150 ± 14 | 75 ± 9 | COc1cc(O)c2c(=O)cc(-c3ccc(OC)c(-c4c(O)cc(O)c5c(=O)cc(-c6ccc(O)cc6)oc45)c3)oc2c1 [Ginkgetin] | Inhibition mode (hUGT1A1 [3]): Mixed; Ki (hUGT1A1 [3]): 70 nM; IC50 (hUGT1A1 [4]): 100 to 290 nM
5 | 670 ± 85 | 160 ± 20 | COc1ccc(-c2cc(=O)c3c(O)cc(O)c(-c4cc(-c5cc(=O)c6c(O)cc(O)cc6o5)ccc4OC)c3o2)cc1 [Isoginkgetin] | Inhibition mode (hUGT1A1 [3]): Mixed; Ki (hUGT1A1 [3]): 740 nM; IC50 (hUGT1A1 [4]): 100 to 290 nM
6 | – | 1380 ± 190 | O=c1c(O)c(-c2ccc(O)cc2)oc2cc(O)cc(O)c12 [Kaempferol] | –
7 | – | 1410 ± 170 | O=c1cc(-c2ccc(O)c(O)c2)oc2cc(O)cc(O)c12 [Luteolin] | –
8 | 280 ± 36 | 110 ± 9 | COc1ccc(-c2cc(=O)c3c(O)cc(O)c(-c4cc(-c5cc(=O)c6c(O)cc(OC)cc6o5)ccc4OC)c3o2)cc1 [Sciadopitysin] | Inhibition mode (hUGT1A1 [3]): Mixed; Ki (hUGT1A1 [3]): 670 nM

More lines, now with the values behind:

Row | Molecule | IC50 (hUGT1A1 [1]) [nM] | IC50 (hUGT1A1 [2]; [5]) [nM] | other results
9 | CC(C)(C)[C@]1(O)CC2OC(=O)CC23C(=O)OC2OC(=O)[C@H](O)C231 (stereo partly shown) [Bilobalide] | – | – | IC50 (hUGT1A1 [2]): > 100000 nM; inhibition of intracellular hUGT1A1 (hUGT1A1 [2]): did not inhibit
10 | COc1ccc(-c2cc(=O)c3c(O)cc(O)cc3o2)cc1-c1c(O)cc(O)c2c(=O)cc(-c3ccc(O)cc3)oc12 [Bilobetin] | 200 ± 23 | 410 ± 48 | Inhibition mode (hUGT1A1 [3]): Mixed; Ki (hUGT1A1 [3]): 180 nM; IC50 (hUGT1A1 [4]): 100 to 290 nM
11 | C[C@@H]1C(=O)O[C@H]2C[C@@]34[C@H]5C[C@@H](C(C)(C)C)[C@]36[C@@H](OC(=O)[C@@H]6O)O[C@@]4(C(=O)O5)[C@]21O [Ginkgolide A] | – | > 100000 | inhibition of intracellular hUGT1A1 (hUGT1A1 [2]): did not inhibit
12 | COc1cc(-c2oc3cc(O)cc(O)c3c(=O)c2O)ccc1O [Lsorhamnetin, isorhamnetin] | – | 1680 ± 340 | –
13 | O=c1c(O)c(-c2cc(O)c(O)c(O)c2)oc2cc(O)cc(O)c12 [Myricetin] | – | 64600 ± 12200 | –
14 | O=c1c(O)c(-c2ccc(O)c(O)c2)oc2cc(O)cc(O)c12 [Quercetin] | – | 2050 ± 240 | –
15 | Ginkgolide B | – | – | inhibition of intracellular hUGT1A1 (hUGT1A1 [2]): did not inhibit
16 | Ginkgolide C | – | – | inhibition of intracellular hUGT1A1 (hUGT1A1 [2]): did not inhibit
